In patent publication US8877720B2, “Epirubicin derivatives” (Tianjin Hemay Bio-Tech Co., Ltd., priority 2009, dated 2014):
Read-outs that look alike come from different tables or passages of the source.

Assays:
THP-1 = experiment: Cytotoxicity assay (MTS/MTT), THP-1 cells; assay type: cell-based, human; conditions: read-out: Inhibitory Concentration 50 for Cell Growth (IC50)
Description: THP-1: human leukemia cell strains

U937 Cells = experiment: Cytotoxicity assay (MTS/MTT), U937 cells; assay type: cell-based, human; conditions: for IC50: U937 Cells, read-out: Inhibitory Concentration 50 for Cell Growth (IC50)
Description: (§1) Cytotoxicity Assay (MTS Assay)
U937: human lymphoma cell strains
(§2) Cells were inoculated in RPMI 1640 cell culture solution with 10% fetal bovine serum (supplemented with 100 ku/L of penicillin, streptomycin, respectively). The petri dishes were left in a cell incubator containing 5% CO2 under the temperature of 37° C. The medium was changed every 2-3 days, and was digested with 0.25% trypsin solution. The cells were subcultured and collected.
(§3) The cells in the exponential phase were formulated into cell suspensions with desired concentrations using RPMI 1640 cell culture solutions containing 10% fetal bovine serum. The suspensions were added into 96-well cell culture plates according to 3,000-5,000 cells per well (100 μl). After being cultured for 24 hr, 100 μl of assay compounds having different concentrations were added into each well. Four parallel tests were conducted for each well. The supernatants were discarded after being cultured for 72-120 hr. 100 μl of 0.5 mg/ml MTT fresh serum-free culture solutions were added into each well. The resultant supernatants were discarded after being cultured for 4 hr at 37° C. Formazan was dissolved with 200 μl DMSO. The resulting mixture was gently shaken for 15 min. Optical absorption values (OD-values) at 570 nm of detection wavelength and 450 nm of reference wavelength were measured with ELISA reader.
(§4) The data were represented by x±s. Inhibition Ratio=(OD values in control groups−OD values in administration groups)/OD values in control groups×100%. Anti-cancer effects were represented by maximum inhibition ratio Imax and inhibitory concentration 50 (IC50). Drawings were obtained with software MicroCal Origin. Inhibition curves of assay compounds for inhibiting the growth of tumor cells were fitted by the four-parameter program Logistic in the software so as to give the inhibitory concentration 50 (IC50:μg/ml) for inhibiting the proliferation of tumor cells.
The exposure concentrations of the assay compounds were 0.001 μg/ml, 0.003 μg/ml, 0.009 μg/ml, 0.027 μg/ml, 0.082 μg/ml, 0.247 μg/ml, 0.741 μg/ml, 2.222 μg/ml, 6.667 μg/ml and 20 μg/ml. […]

PC-3 Cells = experiment: Cytotoxicity assay (MTS/MTT), PC-3 cells; assay type: cell-based, human; conditions: for IC50: PC-3 Cells, read-out: Inhibitory Concentration 50 for Cell Growth (IC50)
Description: as §1
PC-3: human prostate cancer cell strains
as §2, §3
as §4, with “cells. […]” for “cells.”

NCI H460 = experiment: Cytotoxicity assay (MTS/MTT), NCI-H460 cells; assay type: cell-based, human; conditions: read-out: Inhibitory Concentration 50 for Cell Growth (IC50)
Description: NCI-H460: human lung cancer cell strains

A431 Cells = experiment: Cytotoxicity assay (MTS/MTT), A431 cells; assay type: cell-based, human
Description: A431: epidermoid cell strains

786-O = experiment: Cytotoxicity assay (MTS/MTT), 786-O cells; assay type: cell-based, human
Description: as §1
786-O: human kidney cancer cell strains
as §2, §3
(§5) The data were represented by x±s. […]

NCI H446 = experiment: Cytotoxicity assay (MTS/MTT), NCI-H446 cells; assay type: cell-based, human; conditions: read-out: Inhibitory Concentration 50 for Cell Growth (IC50)
Description: as §1
NCI-H446: human lung cancer cell strains
as §2, §3, §5

HL-60 cells = experiment: Cytotoxicity assay (MTS/MTT), HL-60 cells; assay type: cell-based, human; conditions: for Inhibition Ratio (%): HL-60 cells, concentration of 1 μM
Description: as §1
HL-60: human leukemia cell strains
as §2, §3, §4
The exposure concentrations of the assay compounds were 0.001 μg/ml, 0.003 μg/ml, 0.009 μg/ml, 0.027 μg/ml, 0.082 μg/ml, 0.247 μg/ml, 0.741 μg/ml, 2.222 μg/ml, 6.667 μg/ml and 20 μg/ml. The exposure concentrations of adriamycin (as positive drugs) were 1.25 μg/ml, 5 μg/ml and 20 μg/ml. In 96-well plates, 3,000-5,000 cells were inoculated in each well. Four parallel assays were conducted for each concentration.

Kunming mice = experiment: Maximum tolerated dose (MTD) in vivo of mice
Description: Assays on Maximum Tolerated Dose (MTD) In Vivo of Mice
(1) Assay animals: 9 Kunming Mice, of which five were male and four were female, with a weight of 20-22 g (purchased from Lab Animals Center of Chinese Academy of Medical Sciences, License No. scxk (jin) 2005-0001)
(2) Assay medicine: compound in Example 1
Kunming mice were 9, of which 5 were male and 4 were female. Each mouse was administered the compound in Example 1 (20 mg/kg, iv) with a dose volume of 20 ml/kg.
The process for preparing a solution of the compound in Example 1: 4.53 mg of the compound in Example 1 was weighed and dissolved by adding 40 μL of DMSO (dimethylsulfoxide). 340 μL of RH40 (polyoxyethylene castor oil) were added. After mixing homogeneously, 4.156 mL of physiological saline was added to the mixture. After mixing homogeneously, the mixture was filtered with 0.45 μm filter membrane to give a 1 mg/ml solution of the compound in Example 1.
Observation time: 14 days
Observation indicators: weight, appearance, breath, action, reflection, defecation

DU-145 = experiment: Cytotoxicity assay (MTS/MTT), DU-145 cells; assay type: cell-based, human; conditions: read-out: Inhibitory Concentration 50 for Cell Growth (IC50)
Description: as §1
DU-145: human prostate cancer cell strains
as §2, §3, §5

K562 = experiment: Cytotoxicity assay (MTS/MTT), K562 cells; assay type: cell-based, human
Description: as §1
K562: human leukemia cell strain
as §2, §3, §5

Hep G2 = experiment: Cytotoxicity assay (MTS/MTT), Hep G2 cells; assay type: cell-based, human; conditions: read-out: Inhibitory Concentration 50 for Cell Growth (IC50)
Description: as §1
HePG-2: human liver cancer cell strains
as §2, §3, §5

A549 = experiment: Cytotoxicity assay (MTS/MTT), A549 cells; assay type: cell-based, human
Description: as §1
A549: human lung cancer cell strains
as §2, §3, §5

[1] = 20 mg/kg via tail vein, observed for 14 days
[2] = single intravenous injection 20 mg/kg, 9 mice, 14 days observation

COc1cccc2c1C(=O)c1c(O)c3c(c(O)c1C2=O)C[C@@](O)(C(=O)CO)C[C@@H]3O[C@H]1C[C@H](N)[C@@H](O)[C@H](C)O1 [Epirubicin]
IC50 (THP-1; Homo sapiens): 67 nM | IC50 (U937 Cells; Homo sapiens, U-937): 10 nM | IC50 (PC-3 Cells; Homo sapiens): 110 nM | IC50 (NCI H460; Homo sapiens): 25 nM | IC50 (A431 Cells; Homo sapiens, A-431, read-out: Inhibitory Concentration 50 for Cell Growth (IC50)): 18 nM

COc1cccc2c1C(=O)c1c(O)c3c(c(O)c1C2=O)C[C@@](O)(C(=O)CO)C[C@@H]3O[C@H]1C[C@H](n2cccc2)[C@@H](O)[C@H](C)O1 [Example 1, 3′-pyrrolyl epirubicin]
IC50 (786-O; 786-O, read-out: Inhibitory Concentration 50 for Cell Growth (IC50)): 74 nM | Effect on growth of tumor cell strain (786-O; kidney cancer 786-0): strong inhibitory effects | IC50 (THP-1): 9 nM | IC50 (NCI H446): 160 nM | IC50 (HL-60 cells; HL-60, read-out: Inhibitory Concentration 50 for Cell Growth (IC50)): 357 nM | Inhibition Ratio (%) (HL-60 cells): 80% | IC50 (U937 Cells): 12 nM | Effect on growth of tumor cell strain (U937 Cells; lymphoma U937): strong inhibitory effects | IC50 (PC-3 Cells): 10 nM | Effect on growth of tumor cell strain (PC-3 Cells; human prostate cancer PC-3): strong inhibitory effects | Findings on dissection at the end of the test (Kunming mice; 20 mg/kg via tail vein, dissected after 14 days): no abnormal phenomena were observed | Change on the weights of the mice (Kunming mice; [1]): no significant change on the weights | Death of mice (Kunming mice; [1]): no animal died | Other indicators (appearance, breath, action, reflection, defecation) (Kunming mice; [1]): not obviously abnormal | Death Number (Kunming mice; [2]): 0 | Mortality Rate (%) (Kunming mice; [2]): 0% | Average Weight (g) of Mice (Kunming mice; single intravenous injection 20 mg/kg, Day 1): 20.9 g | Average Weight (g) of Mice (Kunming mice; single intravenous injection 20 mg/kg, Day 2): 20.2 g | Average Weight (g) of Mice (Kunming mice; single intravenous injection 20 mg/kg, Day 3): 20.4 g | Average Weight (g) of Mice (Kunming mice; single intravenous injection 20 mg/kg, Day 5): 19.7 g | Average Weight (g) of Mice (Kunming mice; single intravenous injection 20 mg/kg, Day 6): 20.2 g | Average Weight (g) of Mice (Kunming mice; single intravenous injection 20 mg/kg, Day 7): 19.8 g | Average Weight (g) of Mice (Kunming mice; single intravenous injection 20 mg/kg, Day 8): 20.0 g | Average Weight (g) of Mice (Kunming mice; single intravenous injection 20 mg/kg, Day 9): 20.1 g | Average Weight (g) of Mice (Kunming mice; single intravenous injection 20 mg/kg, Day 10): 20.5 g | Average Weight (g) of Mice (Kunming mice; single intravenous injection 20 mg/kg, Day 11): 20.4 g | Average Weight (g) of Mice (Kunming mice; single intravenous injection 20 mg/kg, Day 12): 20.4 g | Average Weight (g) of Mice (Kunming mice; single intravenous injection 20 mg/kg, Day 13): 20.8 g | Average Weight (g) of Mice (Kunming mice; single intravenous injection 20 mg/kg, Day 14): 21.1 g | IC50 (DU-145): 8.6 nM | IC50 (NCI H460): 14 nM | IC50 (K562; K562, read-out: Inhibitory Concentration 50 for Cell Growth (IC50)): 44 nM | Effect on growth of tumor cell strain (K562; human leukemia K562): strong inhibitory effects | IC50 (A431 Cells; read-out: Inhibitory Concentration 50 for Cell Growth (IC50)): 6.3 nM | IC50 (Hep G2): 27 nM | IC50 (A549; A549, read-out: Inhibitory Concentration 50 for Cell Growth (IC50)): 206 nM | Effect on growth of tumor cell strain (A549; lung cancer A549): strong inhibitory effects

COc1cccc2c1C(=O)c1c(O)c3c(c(O)c1C2=O)CC(O)(C(=O)CO)CC3OC1CC(N2C(=O)CCC2=O)C(O)C(C)O1 (centres unmarked) [Example 4, 3′-succinimidyl epirubicin]
Inhibition Ratio (%) (HL-60 cells): 62%

COc1cccc2c1C(=O)c1c(O)c3c(c(O)c1C2=O)CC(O)(C(=O)CO)CC3OC1CC(N2C(=O)CCCC2=O)C(O)C(C)O1 (centres unmarked) [Example 5, 3′-glutarimido epirubicin]
Inhibition Ratio (%) (HL-60 cells): 35%

COc1cccc2c1C(=O)c1c(O)c3c(c(O)c1C2=O)C[C@@](O)(C(=O)CO)C[C@@H]3O[C@H]1C[C@H](N2C(=O)C=CC2=O)[C@@H](O)[C@H](C)O1 [Example 6, 3′-maleimidyl epirubicin]
Inhibition Ratio (%) (HL-60 cells): 43%

COc1cccc2c1C(=O)c1c(O)c3c(c(O)c1C2=O)C[C@@](O)(C(=O)CO)C[C@@H]3O[C@H]1C[C@H](N2C(=O)c3cccnc3C2=O)[C@@H](O)[C@H](C)O1 [Example 7, 3′-(pyridino-(2,3)succinimidyl)epirubicin]
Inhibition Ratio (%) (HL-60 cells): 10%

COc1cccc2c1C(=O)c1c(O)c3c(c(O)c1C2=O)C[C@@](O)(C(=O)CO)C[C@@H]3O[C@H]1C[C@H](N2C(=O)c3ccccc3C2=O)[C@@H](O)[C@H](C)O1 [Example 8, 3′-(benzo-(2,3)succinimidyl)epirubicin]
Inhibition Ratio (%) (HL-60 cells): 71%
